Assay results: PubChem BioAssay AID624258 (Broad Institute, 2012)
Active and inactive are the calls of the source. No rule for the calls is given here.

test system: S. cerevisiae SKN7-toxicity growth rescue, plate reader; assay: Yeast SKN7 toxicity growth rescue counterscreen, Saccharomyces cerevisiae, plate reader, dose confirmatory (AID 624258); details: not given;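 also: growth read after three days of incubation at 30 °C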;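 as to growth rescue activity: 0% = median of neutral control wells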

SMILES | AC40
NNC(=O)c1ccc2nc(-c3ccc(Br)cc3)cn2c1 | 13100 nM
O=C(CSc1ccc(-c2ccccn2)nn1)NC1CCCC1 | 7770 nM
O=C(CSc1nnc(-c2ccccc2O)n1Cc1ccccc1)NNC(=O)c1ccccc1O | 6840 nM
O=S(=O)(CCSc1ccccn1)c1nc2ccccc2s1 | 6530 nM
O=S(=O)(CCSc1nc2ccccc2s1)c1nc2ccccc2s1 | 2430 nM
C/C(CC(=O)Nc1ccccn1)=N\NC(=O)c1ccccc1O | 5110 nM
COC(=O)C1CCN(C2CC(=O)N(c3cc(C)cc(C)c3)C2=O)CC1 (stereo not drawn) | 6630 nM
COc1cc2c(c(OC)c1OC)-c1ccc(O)c(=O)cc1[C@@H](N)CC2 | 936 nM
CCC(Oc1ccccc1)C(=O)Nc1ncc([N+](=O)[O-])s1 (stereo not drawn) | 668 nM
COc1ccc([C@H]2[C@H]3C=CC[C@@H](C)[C@@H]3C(=O)N2Cc2ccccc2)cc1Cl | 4570 nM
Nc1c(Cl)ncnc1N/N=C/c1ccc2ccccc2n1 | 4340 nM
CC(C)(C)c1cc(CCC(=O)NNC(=S)NC(=O)c2ccccc2)cc(C(C)(C)C)c1O | 6310 nM
CCOC(=O)c1ccc(N2C(=O)CC(N(C)CCc3ccc(OC)c(OC)c3)C2=O)cc1 (stereo not drawn) | 4820 nM
Cc1ccc(NC(=O)CN(C)C(=O)c2cccnc2Nc2cccc(C(F)(F)F)c2)cc1 | 5690 nM
c1c[nH]c(CN2CCN(Cc3ncc[nH]3)CC2)n1 | 1700 nM
COc1cccc(CNC(=O)COc2ccc(C(=O)c3ccccc3)cc2)c1 | 18000 nM
CC1=CC(=O)C=C(C)C1=NOS(=O)(=O)c1ccccc1 | 454 nM
Cc1ccnc(N2C(=O)c3cccc4c([N+](=O)[O-])ccc(c34)C2=O)c1 | 166 nM
O=S(=O)(c1cc(C(F)(F)F)ccc1Cl)N1CCN(c2ncnc3ccccc23)CC1 | 17100 nM
CCCOc1ccc(C(=O)NNC(=S)NC(=O)CC)cc1 | 1480 nM
Cc1ccc(SCCNC(=S)Nc2ccc(C)c(C)c2)cc1 | 14200 nM

SMILES | AC40
O=C1c2ccccc2C2=Nc3ccccc3SC(c3cccc(F)c3)C12 (stereo not drawn) | 1240 nM
Cc1nn(-c2nnc(NC3CCCCC3)nn2)c(C)c1Br | 6480 nM
Cc1c2cnccc2c(C)c2c1oc1ccccc12 | 2990 nM
Cc1cc(-c2ccccc2)n(-c2cc(N/N=C/c3ccccc3O)ncn2)n1 | > 19500 nM (inactive)
CCc1cc(C(N)=O)c(NC(=O)c2ccc(OC)cc2)s1 | 6020 nM
CCOC(=O)c1c(C)oc2c1C(=O)c1ccccc1C2=O | 2280 nM
COc1ccc2c(c1)OC[C@H]1[C@H]2N2C(=O)c3cc(OC)ccc3NC(=O)[C@@]2(C)[C@H]1c1ccccc1 | 9310 nM
CCc1nc2ccccc2c(=O)n1NC(=O)c1c(O)c2ccccc2n(CC)c1=O | 2090 nM
COC(=O)c1ccc(SC2CCCCC2)c([N+](=O)[O-])c1 | 1470 nM
COc1cccc(CNC(=O)CSc2ccc(-c3ccccn3)nn2)c1 | 16400 nM
COc1ccc(/C=C(\C#N)c2c[nH]c3ccccc23)cc1 | 17600 nM
Cc1ccc(CNC(=O)C2COc3ccccc3O2)cc1 (stereo not drawn) | 17700 nM
O=C(Cc1ccccc1F)Nc1nc(-c2ccc(F)c(F)c2)cs1 | 2540 nM
O=C(O/N=C(\c1ccccc1)c1ccncc1)c1ccccc1Cl | 9260 nM
Cc1cccc(NS(=O)(=O)c2ccc(-c3cnc(C4CC4)o3)cc2)c1C | 12600 nM
Cc1onc(-c2ccccc2)c1C(=O)OCc1nnc(-c2ccc([N+](=O)[O-])cc2)o1 | 2270 nM
Cc1n[nH]c(C)c1N=Nc1ccc(Br)cc1 | 1760 nM
O=C(O)c1cccc(NN=C2c3ccccc3-c3ccccc32)c1 | 3110 nM
CC(C)(C)c1ccc(-n2nc(C#N)c(Cl)cc2=O)cc1 | 292 nM
Cn1nc(C(F)(F)F)c(C#N)c1N1CCN(c2ccccc2)CC1 | 17600 nM
CCCCCCCCCCOC(=O)Cn1c(COc2ccc(OC)cc2)[n+](C)c2ccccc21 | 3330 nM

SMILES | AC40
COc1ccc(-n2nc(C#N)c(Cl)cc2=O)cc1 | 5220 nM
Cc1cc(C)c(OCC(=O)Nc2nc(-c3ccccn3)cs2)c(C)c1 | 562 nM
COc1ccc(-c2cc(C(=O)NNC(=S)NC(=O)c3c(-c4ccccc4)noc3C)[nH]n2)cc1 | 2310 nM
Cc1nn2c(-c3ccncc3)nnc2c2ccccc12 | > 6800 nM (inactive)
Cc1ccc(CN=Cc2[nH]c3ccc(Br)c(Cl)c3c2O)cc1 | 9030 nM
c1ccc(Cn2cc(-c3cccnc3)cn2)cc1 | 1460 nM
CC(C)CN(C(=O)c1cccc(S(=O)(=O)N2CCN(Cc3ccccc3)CC2)c1)C1CCS(=O)(=O)C1 (stereo not drawn) | 8010 nM
O=Nc1c(O)n(Cc2ccc(Cl)c(Cl)c2)c2ccccc12 | 8740 nM
N/C(Cc1ccc(Cl)cc1Cl)=N\OC(=O)c1ccccc1F | 718 nM
CCCc1cc(-c2n[nH]c(=S)n2-c2cccc(C)c2)cs1 | 17000 nM
Cc1nnc(N=c2ssnc2Cl)o1 | 832 nM
O=C(N/N=C/c1c(O)n(Cc2ccccc2)c(=O)c2ccccc12)c1cccnc1 | 1010 nM
COc1cc(NC(=O)CSc2ccc(-c3ccccn3)nn2)cc(OC)c1 | 894 nM
Cc1ccc(C)c(NS(=O)(=O)c2cc(C(=O)N3CCc4ccccc4C3)ccc2Cl)c1 | 6580 nM
O=C(COC(=O)c1ccc([N+](=O)[O-])o1)NC1CCCc2ccccc21 (stereo not drawn) | 2340 nM
O=S(=O)(CCSc1nc2ccccc2o1)c1nc2ccccc2s1 | 3620 nM
CC(=O)C1CCC2C3CC=C4CC(SC(=N)N)CCC4(C)C3CCC12C (stereo not drawn) | 1660 nM
COc1ccc2nc(NN=C(C)c3ccccn3)cc(C)c2c1 | 3230 nM
Cc1cccc(C(=O)NC(=S)NNC(=O)Cc2ccccc2)c1 | 1220 nM
COc1ccc(C(=O)NC(=S)NNC(=O)CCc2ccccc2)cc1 | 1420 nM
CCCCCCCCCCn1c2c(c(=N)c3c1CCC3)CCC2 | > 6800 nM (inactive)

SMILES | AC40
CCCNC(=O)c1ccc2c(=O)c(O)c(-c3ccc(F)cc3)[nH]c2c1 | 2310 nM
O=C(O)c1ccc(N/N=C/C=C/c2ccccc2)cc1 | 1110 nM
CC(NCCN(C)C)C1CCC2C3CCc4cc(O)ccc4C3CCC12C (stereo not drawn) | 126 nM
S=C1SCN(Cc2cccnc2)CN1Cc1cccnc1 | 1010 nM
O=c1c(O)cccc2cc(O)c(O)c(O)c12 | 2270 nM
COc1ccc(-c2csc(NC(=O)c3ccccc3F)c2C(=O)O)cc1 | 644 nM
O=C(C=Cc1cccc(O)c1)c1ccccc1O | 1430 nM
O=[N+]([O-])c1cc(Cl)cc(/C=N/NC(=S)Nc2ccc(S(=O)(=O)N3CCOCC3)cc2)c1O | 2220 nM
O=S(=O)(Nc1nc2ccccc2nc1N1CCN(c2ccccn2)CC1)c1ccc(Cl)cc1 | 818 nM
COC(=O)c1cc(Sc2cccc(Cl)c2Cl)ccn1 | 14700 nM
O=C(CSc1ccc(-c2ccccn2)nn1)c1ccccc1 | 1220 nM
O=c1cnn([C@@H]2O[C@H](CO)[C@@H](O)[C@H]2O)c(=O)[nH]1 | 882 nM
O=C1C(Br)=Cc2cccc3cccc1c23 | 5810 nM
CCOC(=O)c1ccc(NC(=O)CC2OCCN(CC)C2=O)cc1 (stereo not drawn) | 5810 nM
Cc1nc(Sc2ccc(Cl)cc2)c(C#N)c(C)c1[N+](=O)[O-] | 937 nM
COc1ccc(N=NC2=C(O)CC(C)(C)CC2=O)c(OC)c1 | 306 nM
Cc1c(C(=O)NCCSCc2cccc(C(F)(F)F)c2)cnn1-c1ccc(Cl)cc1 | 6530 nM
CC(C)(C)c1cc(-c2nc(N)nc(N)n2)c(O)c(C(C)(C)C)c1 | 1920 nM

test system: not listed separately; assay: as above; details: S. cerevisiae SKN7-toxicity growth rescue, plate reader; at 19.5 µM (top of the series)

SMILES | growth rescue activity
O=C1C=C(NCCc2cc(Br)c(O)c(Br)c2)C(=O)c2ncccc21 | 30.5% (inactive)
O=S(=O)(Nc1ccc(-n2cccc2)cc1)c1ccc(Cl)c(Cl)c1 | -92.1% (inactive)
